Measured values as given in ChEMBL document CHEMBL3885881, “DrugMatrix”.

Organism: Rattus norvegicus
Experiment: DrugMatrix - Regimen: Daily Repeat
Assay type: toxicity, organism-based, Sprague-Dawley
Design: regimen Daily Repeat, gender Male, age 6-8 weeks
Details: in vivo, po, 310 mg/kg, route oral GAVAGE, dose level High, vehicle .5 % CMC; for ABSOLUTE BASOPHIL / ABSOLUTE EOSINOPHIL / ABSOLUTE LYMPHOCYTE / ABSOLUTE MONOCYTE / ABSOLUTE SEGMENTED NEUTROPHIL / BASOPHIL / EOSINOPHIL / ERYTHROCYTE COUNT / HEMATOCRIT / HEMOGLOBIN / LEUKOCYTE COUNT / LYMPHOCYTE / MEAN CORPUSCULAR HEMOGLOBIN / MEAN CORPUSCULAR HEMOGLOBIN CONCENTRATION / MEAN CORPUSCULAR VOLUME / MONOCYTE / NEUTROPHIL / NUCLEATED RED BLOOD CELLS / PLATELET COUNT: tissue Blood; for ALANINE AMINOTRANSFERASE / ALBUMIN / ALKALINE PHOSPHATASE / ASPARTATE AMINOTRANSFERASE / BLOOD UREA NITROGEN / CARBON DIOXIDE / CHLORIDE / CHOLESTEROL / CREATINE PHOSPHOKINASE / CREATININE / GLUCOSE / LACTATE DEHYDROGENASE / LIPASE / PHOSPHORUS / POTASSIUM / SODIUM / TOTAL BILIRUBIN / TOTAL PROTEIN / URIC ACID: tissue Plasma

In the case of `O=C1CN=C(c2ccccc2)c2cc([N+](=O)[O-])ccc2N1` [NITRAZEPAM], the “ABSOLUTE BASOPHIL” value (72 h, time 3 day) is reported as 0 CELLS/uL, the “ABSOLUTE EOSINOPHIL” value (72 h, time 3 day) is reported as 0 CELLS/uL and the “ABSOLUTE LYMPHOCYTE” value (72 h, time 3 day) is reported as 11568.33 CELLS/uL. The “ABSOLUTE MONOCYTE” value (72 h, time 3 day) was 226.67 CELLS/uL, the “ABSOLUTE SEGMENTED NEUTROPHIL” value (72 h, time 3 day) was 871.67 CELLS/uL and the BASOPHIL (72 h, time 3 day) was 0%. For the same compound, the EOSINOPHIL (72 h, time 3 day) was 0%, the “ERYTHROCYTE COUNT” value (72 h, time 3 day) was 5.41 x10E6/uL and the HEMATOCRIT (72 h, time 3 day) was 34%. The HEMOGLOBIN (72 h, time 3 day) was 13.63 G/DL, the “LEUKOCYTE COUNT” value (72 h, time 3 day) was 12.67 x10E3/uL and the LYMPHOCYTE (72 h, time 3 day) was 90.67%. The “MEAN CORPUSCULAR HEMOGLOBIN” value (72 h, time 3 day) was 25.23 pg, the “MEAN CORPUSCULAR HEMOGLOBIN CONCENTRATION” value (72 h, time 3 day) was 40.1 G/DL and the “MEAN CORPUSCULAR VOLUME” value (72 h, time 3 day) was 62.87 fL. The MONOCYTE (72 h, time 3 day) was 1.67%, the NEUTROPHIL (72 h, time 3 day) was 7.67% and the “NUCLEATED RED BLOOD CELLS” value (72 h, time 3 day) was 0 /100WBC. For the same compound, the “PLATELET COUNT” value (72 h, time 3 day) was 1116 x10E3/uL, the “ALANINE AMINOTRANSFERASE” value (72 h, time 3 day) was 48 u/L and the ALBUMIN (72 h, time 3 day) was 4.03 G/DL. For the same compound, the “ALKALINE PHOSPHATASE” value (72 h, time 3 day) was 270 u/L, the “ASPARTATE AMINOTRANSFERASE” value (72 h, time 3 day) was 93.33 u/L and the “BLOOD UREA NITROGEN” value (72 h, time 3 day) was 15.67 mg/dL. The “CARBON DIOXIDE” value (72 h, time 3 day) was 27.67 mmol/L, the CHLORIDE (72 h, time 3 day) was 100 MEQ/L and the CHOLESTEROL (72 h, time 3 day) was 88.67 mg/dL. The “CREATINE PHOSPHOKINASE” value (72 h, time 3 day) was 222.67 u/L, the CREATININE (72 h, time 3 day) was 0.17 mg/dL and the GLUCOSE (72 h, time 3 day) was 150.33 mg/dL. For the same compound, the “LACTATE DEHYDROGENASE” value (72 h, time 3 day) was 150.67 u/L, the LIPASE (72 h, time 3 day) was 8 u/L and the PHOSPHORUS (72 h, time 3 day) was 11.93 mg/dL. For the same compound, the POTASSIUM (72 h, time 3 day) was 6.17 MEQ/L, the SODIUM (72 h, time 3 day) was 143.67 MEQ/L and the “TOTAL BILIRUBIN” value (72 h, time 3 day) was 0.2 mg/dL. The “TOTAL PROTEIN” value (72 h, time 3 day) was 5.7 G/DL, the “URIC ACID” value (72 h, time 3 day) was 1.3 mg/dL and the “ABSOLUTE BASOPHIL” value (120 h, time 5 day) was 0 CELLS/uL. For the same compound, the “ABSOLUTE EOSINOPHIL” value (120 h, time 5 day) was 37.33 CELLS/uL, the “ABSOLUTE LYMPHOCYTE” value (120 h, time 5 day) was 8871.33 CELLS/uL and the “ABSOLUTE MONOCYTE” value (120 h, time 5 day) was 96.67 CELLS/uL. For the same compound, the “ABSOLUTE SEGMENTED NEUTROPHIL” value (120 h, time 5 day) was 1228 CELLS/uL, the BASOPHIL (120 h, time 5 day) was 0% and the EOSINOPHIL (120 h, time 5 day) was 0.33%. The “ERYTHROCYTE COUNT” value (120 h, time 5 day) was 6.24 x10E6/uL, the HEMATOCRIT (120 h, time 5 day) was 37.73% and the HEMOGLOBIN (120 h, time 5 day) was 14.83 G/DL. For the same compound, the “LEUKOCYTE COUNT” value (120 h, time 5 day) was 10.23 x10E3/uL, the LYMPHOCYTE (120 h, time 5 day) was 86.67% and the “MEAN CORPUSCULAR HEMOGLOBIN” value (120 h, time 5 day) was 23.77 pg. The “MEAN CORPUSCULAR HEMOGLOBIN CONCENTRATION” value (120 h, time 5 day) was 39.33 G/DL, the “MEAN CORPUSCULAR VOLUME” value (120 h, time 5 day) was 60.47 fL and the MONOCYTE (120 h, time 5 day) was 1%. The NEUTROPHIL (120 h, time 5 day) was 12%, the “NUCLEATED RED BLOOD CELLS” value (120 h, time 5 day) was 0 /100WBC and the “PLATELET COUNT” value (120 h, time 5 day) was 1180.33 x10E3/uL. The “ALANINE AMINOTRANSFERASE” value (120 h, time 5 day) was 39.67 u/L, the ALBUMIN (120 h, time 5 day) was 4.13 G/DL and the “ALKALINE PHOSPHATASE” value (120 h, time 5 day) was 195.33 u/L. The “ASPARTATE AMINOTRANSFERASE” value (120 h, time 5 day) was 76.33 u/L, the “BLOOD UREA NITROGEN” value (120 h, time 5 day) was 17.33 mg/dL and the “CARBON DIOXIDE” value (120 h, time 5 day) was 26.33 mmol/L. The CHLORIDE (120 h, time 5 day) was 104 MEQ/L, the CHOLESTEROL (120 h, time 5 day) was 87.67 mg/dL and the “CREATINE PHOSPHOKINASE” value (120 h, time 5 day) was 160 u/L. The CREATININE (120 h, time 5 day) was 0.19 mg/dL, the GLUCOSE (120 h, time 5 day) was 148.67 mg/dL and the “LACTATE DEHYDROGENASE” value (120 h, time 5 day) was 101 u/L. For the same compound, the LIPASE (120 h, time 5 day) was 40.67 u/L, the PHOSPHORUS (120 h, time 5 day) was 9.83 mg/dL and the POTASSIUM (120 h, time 5 day) was 6.59 MEQ/L. The SODIUM (120 h, time 5 day) was 145.77 MEQ/L, the “TOTAL BILIRUBIN” value (120 h, time 5 day) was 0.13 mg/dL and the “TOTAL PROTEIN” value (120 h, time 5 day) was 6 G/DL. For the same compound, the “URIC ACID” value (120 h, time 5 day) was 1.17 mg/dL.
